Common to all, as to experiment: Kinase selectivity, DiscoverX scanMAX Kinase assay panel (% control)
Common to all, as to assay type: binding

Assay [1] deals with T1, kinases of the scanMAX Kinase assay panel (Homo sapiens, UniProt Q00526).
T1 construct: purchased DiscoverX Co. (contract measurement) scanMAX Kinase assay panel
The settings on record: CDK3; 1 uM. In outline: (§1)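 Compounds tested at 1 uM against the scanMAX kinase panel. Signal expressed as % control = (compound − positive control)/(DMSO negative control − positive control) × 100, where positive control = 0% and DMSO = 100%; below 35% counted as activity on that kinase.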

Assay [2] deals with T2, kinases of the scanMAX Kinase assay panel (Homo sapiens, UniProt P42336, H1047L).
T2 construct: purchased DiscoverX Co. (contract measurement) scanMAX Kinase assay panel
T2 sequence (P42336 whole entry H1047L): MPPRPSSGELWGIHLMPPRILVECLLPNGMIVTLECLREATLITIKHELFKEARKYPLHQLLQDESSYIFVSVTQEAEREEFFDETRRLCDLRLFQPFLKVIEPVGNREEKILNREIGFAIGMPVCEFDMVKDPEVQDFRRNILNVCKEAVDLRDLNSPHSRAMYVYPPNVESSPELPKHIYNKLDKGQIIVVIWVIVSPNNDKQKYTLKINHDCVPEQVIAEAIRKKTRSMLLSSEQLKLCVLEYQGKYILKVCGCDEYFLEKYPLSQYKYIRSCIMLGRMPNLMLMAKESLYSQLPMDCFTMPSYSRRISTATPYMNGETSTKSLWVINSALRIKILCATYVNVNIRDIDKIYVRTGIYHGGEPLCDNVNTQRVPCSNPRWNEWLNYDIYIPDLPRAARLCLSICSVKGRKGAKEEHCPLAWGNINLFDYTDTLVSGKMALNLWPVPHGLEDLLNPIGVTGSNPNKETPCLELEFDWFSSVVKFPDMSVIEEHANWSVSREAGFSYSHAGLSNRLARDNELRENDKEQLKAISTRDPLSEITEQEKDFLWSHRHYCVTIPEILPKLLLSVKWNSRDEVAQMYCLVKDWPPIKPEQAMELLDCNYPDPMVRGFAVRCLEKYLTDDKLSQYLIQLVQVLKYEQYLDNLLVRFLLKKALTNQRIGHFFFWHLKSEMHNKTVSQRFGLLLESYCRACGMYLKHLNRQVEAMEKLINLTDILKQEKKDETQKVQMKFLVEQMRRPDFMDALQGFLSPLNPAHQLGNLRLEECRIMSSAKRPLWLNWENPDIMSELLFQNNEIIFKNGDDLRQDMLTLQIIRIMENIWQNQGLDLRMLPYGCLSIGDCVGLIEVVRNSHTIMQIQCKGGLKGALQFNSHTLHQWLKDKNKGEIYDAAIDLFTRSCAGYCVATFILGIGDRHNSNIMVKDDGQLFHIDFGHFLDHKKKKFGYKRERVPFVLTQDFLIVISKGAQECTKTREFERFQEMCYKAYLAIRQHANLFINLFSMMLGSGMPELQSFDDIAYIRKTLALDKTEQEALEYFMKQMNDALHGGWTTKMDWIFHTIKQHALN
The settings on record: PIK3CA(H1047L); 1 uM. Summed up: as §1

Assay [3] deals with T3, kinases of the scanMAX Kinase assay panel (Homo sapiens, UniProt Q8NG66).
T3 construct: purchased DiscoverX Co. (contract measurement) scanMAX Kinase assay panel
T3 sequence (Q8NG66 1-645): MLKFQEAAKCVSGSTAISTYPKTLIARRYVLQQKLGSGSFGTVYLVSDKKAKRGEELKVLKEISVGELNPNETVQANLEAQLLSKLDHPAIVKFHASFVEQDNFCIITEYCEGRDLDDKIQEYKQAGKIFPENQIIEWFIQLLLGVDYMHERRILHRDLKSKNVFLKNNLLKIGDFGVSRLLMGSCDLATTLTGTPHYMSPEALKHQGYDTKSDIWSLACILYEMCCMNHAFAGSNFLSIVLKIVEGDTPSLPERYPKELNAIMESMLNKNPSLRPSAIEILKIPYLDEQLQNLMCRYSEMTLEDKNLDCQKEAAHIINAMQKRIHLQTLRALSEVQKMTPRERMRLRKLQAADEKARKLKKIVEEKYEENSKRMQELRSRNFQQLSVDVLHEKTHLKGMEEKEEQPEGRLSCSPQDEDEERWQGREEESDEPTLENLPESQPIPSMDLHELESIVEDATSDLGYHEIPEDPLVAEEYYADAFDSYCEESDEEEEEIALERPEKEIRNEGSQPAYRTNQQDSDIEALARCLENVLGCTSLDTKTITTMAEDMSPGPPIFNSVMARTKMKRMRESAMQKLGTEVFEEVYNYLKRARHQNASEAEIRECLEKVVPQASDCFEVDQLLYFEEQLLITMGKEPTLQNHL
Particulars: NEK11; 1 uM. In outline: as §1

The target in assay [4] is T4, kinases of the scanMAX Kinase assay panel (Homo sapiens, UniProt P06241).
T4 construct: purchased DiscoverX Co. (contract measurement) scanMAX Kinase assay panel
T4 sequence (P06241 whole entry): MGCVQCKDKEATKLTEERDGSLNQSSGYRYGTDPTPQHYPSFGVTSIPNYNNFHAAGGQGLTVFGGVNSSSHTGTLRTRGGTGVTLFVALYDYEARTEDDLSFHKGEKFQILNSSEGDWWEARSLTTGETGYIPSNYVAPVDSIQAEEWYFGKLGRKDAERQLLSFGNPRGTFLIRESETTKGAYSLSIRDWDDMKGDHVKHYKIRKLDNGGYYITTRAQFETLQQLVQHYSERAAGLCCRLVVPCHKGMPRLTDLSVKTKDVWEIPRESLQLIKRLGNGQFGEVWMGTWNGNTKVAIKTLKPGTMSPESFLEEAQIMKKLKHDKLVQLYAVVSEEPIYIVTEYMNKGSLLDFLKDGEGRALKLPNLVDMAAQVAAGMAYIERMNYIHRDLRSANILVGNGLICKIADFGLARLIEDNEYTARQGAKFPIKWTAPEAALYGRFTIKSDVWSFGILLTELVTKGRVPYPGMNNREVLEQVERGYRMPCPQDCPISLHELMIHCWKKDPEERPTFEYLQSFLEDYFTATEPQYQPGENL
The settings on record: FYN; 1 uM. Summed up: as §1

The target in assay [5] is T5, kinases of the scanMAX Kinase assay panel (Homo sapiens, UniProt Q13470).
T5 construct: purchased DiscoverX Co. (contract measurement) scanMAX Kinase assay panel
T5 sequence (Q13470 1-666): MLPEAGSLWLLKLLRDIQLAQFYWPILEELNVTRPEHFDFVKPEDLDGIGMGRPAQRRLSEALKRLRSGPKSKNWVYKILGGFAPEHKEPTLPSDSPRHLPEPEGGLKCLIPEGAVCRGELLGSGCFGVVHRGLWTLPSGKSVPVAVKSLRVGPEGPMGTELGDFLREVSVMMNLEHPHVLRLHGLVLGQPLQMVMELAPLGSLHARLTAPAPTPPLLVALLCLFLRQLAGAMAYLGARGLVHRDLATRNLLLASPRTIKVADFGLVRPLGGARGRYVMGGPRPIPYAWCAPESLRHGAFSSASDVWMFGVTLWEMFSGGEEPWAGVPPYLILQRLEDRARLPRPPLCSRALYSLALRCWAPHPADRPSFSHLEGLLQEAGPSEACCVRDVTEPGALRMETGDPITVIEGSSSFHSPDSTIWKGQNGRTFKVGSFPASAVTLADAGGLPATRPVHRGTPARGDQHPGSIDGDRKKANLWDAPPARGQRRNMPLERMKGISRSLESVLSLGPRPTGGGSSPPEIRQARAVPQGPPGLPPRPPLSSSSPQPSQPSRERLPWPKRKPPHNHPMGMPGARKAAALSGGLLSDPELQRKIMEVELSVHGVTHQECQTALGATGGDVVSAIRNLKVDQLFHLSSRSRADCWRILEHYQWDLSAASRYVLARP
Particulars: kinase TNK1; 1 uM in DMSO. In outline: as §1

Assay [6] addresses T6, kinases of the scanMAX Kinase assay panel (Homo sapiens, UniProt Q09013).
T6 construct: purchased DiscoverX Co. (contract measurement) scanMAX Kinase assay panel
T6 sequence (Q09013 1-629): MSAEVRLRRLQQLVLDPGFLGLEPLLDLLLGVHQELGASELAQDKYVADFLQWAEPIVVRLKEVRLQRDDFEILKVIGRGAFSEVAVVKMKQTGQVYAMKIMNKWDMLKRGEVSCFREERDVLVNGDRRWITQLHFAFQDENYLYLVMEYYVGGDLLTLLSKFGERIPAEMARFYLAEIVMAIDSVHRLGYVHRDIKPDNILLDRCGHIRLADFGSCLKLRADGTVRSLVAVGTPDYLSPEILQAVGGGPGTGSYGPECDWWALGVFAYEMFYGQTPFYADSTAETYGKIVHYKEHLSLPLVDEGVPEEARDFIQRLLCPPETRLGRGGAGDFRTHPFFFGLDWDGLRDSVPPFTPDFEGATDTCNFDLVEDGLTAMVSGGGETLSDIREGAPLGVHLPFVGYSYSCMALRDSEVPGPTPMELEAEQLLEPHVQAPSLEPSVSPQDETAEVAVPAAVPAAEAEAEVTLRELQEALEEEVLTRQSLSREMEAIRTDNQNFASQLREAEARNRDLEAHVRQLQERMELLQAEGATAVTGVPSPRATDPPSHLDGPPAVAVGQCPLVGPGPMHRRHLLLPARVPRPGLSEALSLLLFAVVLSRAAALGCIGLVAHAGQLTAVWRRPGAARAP
The settings on record: DMPK; 1 uM. In outline: as §1

T1 sequence (Q00526 whole entry): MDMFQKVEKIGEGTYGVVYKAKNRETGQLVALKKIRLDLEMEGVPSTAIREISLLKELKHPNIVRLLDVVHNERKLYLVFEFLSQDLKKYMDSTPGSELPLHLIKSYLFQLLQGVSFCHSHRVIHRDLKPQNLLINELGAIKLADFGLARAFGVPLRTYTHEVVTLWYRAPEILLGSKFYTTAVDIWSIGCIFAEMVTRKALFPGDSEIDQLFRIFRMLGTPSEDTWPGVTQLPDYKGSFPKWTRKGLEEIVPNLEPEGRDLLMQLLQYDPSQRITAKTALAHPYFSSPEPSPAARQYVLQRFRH

`CC1(Nc2nc(Nc3cnn([C@H]4CCN(C5COC5)C[C@@H]4F)c3Cl)nc3[nH]cc(C#N)c23)CC1` [Example 52, 2-((5-chloro-1-((3S,4S)-3-fluoro-1-(oxetane-3-yl)piperidine-4-yl)-1H-pyrazole-4-yl)amino)((1-methylcyclopropyl)amino)-7H-pyrrolo[2,3-d]pyrimidine-5-carbonitrile]: the remaining binding at 1 µM in assay [1] was found to be 76%; in assay [2] it was 70%; in assay [3], 100%; in assay [4], 19%; in assay [5] it was 18%; in assay [6] it was 3.4%.

Take `CCNc1nc(Nc2ccc(C(=O)N3CCC(N4CCOCC4)CC3)cc2OC)nc2[nH]cc(C(F)(F)F)c12` [Example 104, (4-((4-(ethylamino)-5-(trifluoromethyl)-7H-pyrrolo[2,3-d]pyrimidine-2-yl)amino)-3-methoxyphenyl)(4-morpholinopiperidine-1-yl)methanone]: the remaining binding at 1 µM came out at 93% in assay [1]; 88% in assay [2]; 100% in assay [3]; 100% in assay [4]; 16% in assay [5]; 100% in assay [6].

For `CNc1nc(Nc2ccc(C(=O)N3CCOCC3)cc2OC)nc2[nH]cc(C#N)c12` [Example 1, 2-((2-methoxy-4-(morpholine-4-carbonyl)phenyl)amino)-4-(methylamino)-7H-pyrrolo[2,3-d]pyrimidine-5-carbonitrile], the remaining binding at 1 µM in assay [1] is 100%; in assay [2] it was 100%; in assay [3] it was 70%; in assay [4], 100%; in assay [5], 85%; in assay [6], 100%.

These data come from US11208412B2 (DAEGU-GYEONGBUK MEDICAL INNOVATION FOUNDATION, priority 2017, dated 2021).
